Results from patent publication US20060014197A1, “In vivo screening methods for identifying inhibitors of RNA polymerases” (priority 2004, published 2006).

Columns and labels:
[1] = biological target: T1, resident RNAPII (Homo sapiens, UniProt P24928); assay: Tet-ON GFP reporter assay in transfected eukaryotic cells, no amanitin-resistant RPB1 expressed; assay type: cell-based; settings: human HeLa or 293 cells, amanitin added, doxycycline induction, 48 hours; FIG. 7B
T1 construct: endogenous in cells; host or cells: human HeLa or 293 cells

[2] = biological target: T2, amanitin-resistant RNAPII (human RPB1 N792D) (Homo sapiens, UniProt P24928, N792D); assay: Tet-ON GFP reporter assay in transfected eukaryotic cells expressing amanitin-resistant RPB1; assay type: cell-based; settings: human HeLa or 293 cells with plasmid-expressed amanitin-resistant RPB1, amanitin added, doxycycline induction, 48 hours; FIG. 7B
T2 construct: expressed in transfected cells; host or cells: human HeLa or 293 cells transfected with the RPB1 plasmid and pGFP

CC[C@H](C)[C@@H]1NC(=O)CNC(=O)[C@@H]2Cc3c([nH]c4cc(O)ccc34)[S+]([O-])C[C@@H](NC(=O)CNC1=O)C(=O)N[C@@H](CC(N)=O)C(=O)N1C[C@H](O)C[C@H]1C(=O)N[C@@H]([C@@H](C)[C@@H](O)CO)C(=O)N2 (stereo partly drawn) [amanitin, alpha-amanitin]
GFP fluorescent signal (flow cytometer) [1]: no fluorescent signal is observed
GFP fluorescent signal (flow cytometer) [2]: results in fluorescent signal
